Experimental data published in patent publication US20190203240A1, “METHODS FOR THE PRODUCTION OF RHAMNOSYLATED FLAVONOIDS” (Universitaet Hamburg, priority 2016, published 2019).

Key:
Assay type in all cases: cell-based
STAT3 = STAT3 activity in HeLa-STAT3-luc cells stimulated with IFN-γ (luciferase); details: +IFNγ 25 U/ml
Experimental: HeLa-STAT3-luc cells were stably transfected with the plasmid 4×M67 pTATA TK-Luc. Cells (20×10^3 cells/ml) were seeded 96-well plate the day before the assay. Then the cells were treated with the test substances for […] and then stimulated with IFN-γ 25 IU/ml. After 6 h, the cells were washed twice with PBS and lysed in […] lysis buffer containing 25 mM Tris-phosphate (pH 7.8), 8 mM MgCl2, 1 mM DTT, 1% Triton X-100, and 7% glycerol during […] at RT in a horizontal shaker. Luciferase activity was measured using GloMax 96 microplate luminometer (Promega) following the instructions of the luciferase assay kit (Promega, Madison, Wis., USA). […] The experiments for each concentration of the test items were done in triplicate wells.

HaCaT cells = experiment: Glucose uptake (2-NBDG) in HaCaT keratinocytes; details: +2NBDG 50 μM, 24 h
Experimental: HaCaT cells (5×10^4) were seeded in 96-well black plates and incubated for 24 h. Then, medium was removed and the cells cultivated in OptiMEM, labeled with 50 μM 2-NBDG (2-[N-(7-nitrobenz-2-oxa-1,3-diazol-4-yl) amino]-2-deoxy-D-glucose and treated with the test substances or the positive control, Rosiglitazone, for 24 h. Medium was removed and the wells were carefully washed with PBS and incubated in PBS (100 μl/well). Finally the fluorescence was measured using the Incucyte FLR software, the data were analyzed by the total green object integrated intensity (GCU×μm2×Well) of the imaging system IncuCyte HD (Essen BioScience). The fluorescence of Rosiglitazone is taken as 100% of glucose uptake, and the glucose uptake was calculated as (% Glucose uptake)=100(T−B)/(R−B), where T (treated) is the fluorescence of test substance-treated cells, B (Basal) is the fluorescence of 2-NBDG cells and […] is the fluorescence of cells treated with Rosiglitazone.

NF-κB = NF-κB activity in NIH3T3-KBF-Luc cells stimulated with TNFα (luciferase); details: +30 ng/ml TNFα
Experimental: NIH3T3-KBF-Luc cells were stably transfected with the KBF-Luc plasmid (Sancho (2003) Mol Pharmacol 63:429-438), which contains three copies of NF-κB binding site (from major histocompatibility complex promoter), fused to a minimal simian virus 40 promoter driving the luciferase gene. Cells (1×10^4 for NIH3T3-KBF-Luc) were seeded the day before the assay on 96-well plate. Then the cells were treated with the test substances for 15 min and then stimulated with 30 ng/ml of TNFα. After 6 h, the cells were washed twice with PBS and lysed in 50 μl lysis buffer containing 25 mM Tris-phosphate (pH 7.8), 8 mM MgCl2, 1 mM DTT, 1% Triton X-100, and 7% glycerol during 15 min at RT in a horizontal shaker. Luciferase activity was measured using a GloMax 96 microplate luminometer (Promega) following the instructions of the luciferase assay kit (Promega, Madison, Wis., USA). […] The experiments for each concentration of the test items were done in triplicate wells.

Row | Structure (SMILES) | % Activation (STAT3; IFNγ = 100%) (STAT3; 25 μM) [%] | RLU 1 (STAT3; 25 μM) [RLU] | RLU 2 (STAT3; 25 μM) [RLU] | RLU 3 (STAT3; 25 μM) [RLU] | RLU MEAN (STAT3; 25 μM) [RLU] | RLU specific (STAT3; 25 μM) [RLU] | RLU 1 (STAT3; 50 μM) [RLU] | RLU 2 (STAT3; 50 μM) [RLU] | RLU 3 (STAT3; 50 μM) [RLU] | % Activation (NF-κB; TNFα = 100%) (NF-κB; 10 μM) [%] | RLU 1 (NF-κB; 10 μM) [RLU] | RLU 2 (NF-κB; 10 μM) [RLU] | RLU 3 (NF-κB; 10 μM) [RLU] | RLU MEAN (NF-κB; 10 μM) [RLU] | RLU specific (NF-κB; 10 μM) [RLU] | RLU 1 (NF-κB; 25 μM) [RLU] | RLU 2 (NF-κB; 25 μM) [RLU] | RLU 3 (NF-κB; 25 μM) [RLU] | RLU MEAN (NF-κB; 25 μM) [RLU] | RLU specific (NF-κB; 25 μM) [RLU] | other results
1 | COc1ccc(-c2coc3cc(O[C@@H]4O[C@@H](C)[C@H](O)[C@@H](O)[C@H]4O)cc(O[C@@H]4O[C@@H](C)[C@H](O)[C@@H](O)[C@H]4O)c3c2=O)cc1 [BR1, Biochanin A-5,7-di-O-α-L-rhamnoside] | 110.41 | 8162 | 12819 | 11157 | 10713 | 8878 | 12336 | 11620 | 12104 | 170.3 | 259120 | 247590 | 229500 | 245403 | 222040 | 211660 | 208010 | 203720 | 207797 | 184433 | % Activation (STAT3; IFNγ = 100%) (STAT3; 50 μM): 126.67%; RLU MEAN (STAT3; 50 μM): 12020 RLU; RLU specific (STAT3; 50 μM): 10185 RLU; % Glucose uptake (Rosiglitazone = 100%) (HaCaT cells; 25 μM): 44.0%; Mean (fluorescence) (HaCaT cells; 25 μM): 597246; Measure 1 (fluorescence) (HaCaT cells; 25 μM): 730362; Measure 2 (fluorescence) (HaCaT cells; 25 μM): 661244; Measure 3 (fluorescence) (HaCaT cells; 25 μM): 400131; RFU specific (HaCaT cells; 25 μM): 564160 RFU; % Glucose uptake (Rosiglitazone = 100%) (HaCaT cells; 50 μM): 56.4%; Mean (fluorescence) (HaCaT cells; 50 μM): 756509; Measure 1 (fluorescence) (HaCaT cells; 50 μM): 899548; Measure 2 (fluorescence) (HaCaT cells; 50 μM): 626443; Measure 3 (fluorescence) (HaCaT cells; 50 μM): 743535; RFU specific (HaCaT cells; 50 μM): 723423 RFU; % Activation (NF-κB; TNFα = 100%) (NF-κB; 25 μM): 141.4%
2 | CC1O[C@@H](Oc2cc(O[C@@H]3OC(C)[C@H](O)C(O)C3O)c3c(=O)cc(-c4ccccc4)oc3c2)C(O)C(O)[C@H]1O (stereo partly drawn) [CR1, Chrysin-di-5,7-O-α-L-rhamnoside] |  |  |  |  |  |  |  |  |  | 109.9 | 157870 | 169000 | 173010 | 166627 | 143263 | 175140 | 183630 | 183960 | 180910 | 157547 | % Glucose uptake (Rosiglitazone = 100%) (HaCaT cells; 25 μM): 48.3%; Mean (fluorescence) (HaCaT cells; 25 μM): 426161; Measure 1 (fluorescence) (HaCaT cells; 25 μM): 291406; Measure 2 (fluorescence) (HaCaT cells; 25 μM): 358114; Measure 3 (fluorescence) (HaCaT cells; 25 μM): 628963; RFU specific (HaCaT cells; 25 μM): 419847 RFU; % Glucose uptake (Rosiglitazone = 100%) (HaCaT cells; 50 μM): 52.6%; Mean (fluorescence) (HaCaT cells; 50 μM): 463245; Measure 1 (fluorescence) (HaCaT cells; 50 μM): 619992; Measure 2 (fluorescence) (HaCaT cells; 50 μM): 595330; Measure 3 (fluorescence) (HaCaT cells; 50 μM): 174412; RFU specific (HaCaT cells; 50 μM): 456931 RFU; % Activation (NF-κB; TNFα = 100%) (NF-κB; 25 μM): 120.8%
3 | CC1O[C@@H](Oc2cc(O)cc3oc(-c4ccccc4)cc(=O)c23)C(O)C(O)[C@H]1O (stereo partly drawn) [CR2, Chrysin-5-O-α-L-rhamnoside] |  |  |  |  |  |  |  |  |  | 101.7 | 156600 | 160140 | 151070 | 155937 | 132573 | 170390 | 179220 | 163490 | 171033 | 147670 | % Glucose uptake (Rosiglitazone = 100%) (HaCaT cells; 25 μM): 47.2%; Mean (fluorescence) (HaCaT cells; 25 μM): 416681; Measure 1 (fluorescence) (HaCaT cells; 25 μM): 427937; Measure 2 (fluorescence) (HaCaT cells; 25 μM): 431593; Measure 3 (fluorescence) (HaCaT cells; 25 μM): 390512; RFU specific (HaCaT cells; 25 μM): 410367 RFU; % Glucose uptake (Rosiglitazone = 100%) (HaCaT cells; 50 μM): 106.5%; Mean (fluorescence) (HaCaT cells; 50 μM): 931673; Measure 1 (fluorescence) (HaCaT cells; 50 μM): 771478; Measure 2 (fluorescence) (HaCaT cells; 50 μM): 1100390; Measure 3 (fluorescence) (HaCaT cells; 50 μM): 923151; RFU specific (HaCaT cells; 50 μM): 925359 RFU; activity at 25 µM (NF-κB; 6 h, 25 μM, read-out: % Activation (NF-κB; TNFα = 100%)): 113%
4 | O=c1cc(-c2ccccc2)oc2cc(O)cc(O)c12 [Chrysin] | 164.78 | 28031 | 22367 | 17504 | 22634 | 20627 | 27912 | 3531 | 16304 | 313.0 | 301630 | 274240 | 303950 | 293273 | 256010 | 273410 | 272580 | 285980 | 277323 | 240060 | % Activation (STAT3; IFNγ = 100%) (STAT3; 50 μM): 111.11%; RLU MEAN (STAT3; 50 μM): 15916 RLU; RLU specific (STAT3; 50 μM): 13908 RLU; % Activation (NF-κB; TNFα = 100%) (NF-κB; 25 μM): 293.5%
5 | COc1ccc(-c2cc(=O)c3c(O)cc(O)cc3o2)cc1O [Diosmetin] | 111.00 | 16337 | 14303 | 17066 | 15902 | 13895 | 9189 | 7751 | 7857 | 294.7 | 398660 | 411390 | 412940 | 407663 | 384300 | 448530 | 452660 | 451610 | 450933 | 427570 | RLU MEAN (STAT3; 50 μM): 8266 RLU; RLU specific (STAT3; 50 μM): 6258 RLU; activity at 50 µM (STAT3; 6 h, 50 μM, read-out: % Activation (STAT3; IFNγ = 100%)): 50%; % Activation (NF-κB; TNFα = 100%) (NF-κB; 25 μM): 327.9%
6 | COc1cc(C2Oc3cc([C@H]4Oc5cc(O)cc(O)c5C(=O)[C@@H]4O)ccc3OC2CO)ccc1O (stereo partly drawn) [Silibinin] | 121.32 | 12389 | 11170 | 11210 | 11590 | 9755 | 12157 | 11885 | 10540 |  |  |  |  |  |  |  |  |  |  |  | % Activation (STAT3; IFNγ = 100%) (STAT3; 50 μM): 120.55%; RLU MEAN (STAT3; 50 μM): 11527 RLU; RLU specific (STAT3; 50 μM): 9692 RLU
